Data set [1] in a line: Pharmacokinetics of exemestane, additional 21 patients. Type of data set: in vivo. The conditions noted are these: female, human, plasma, oral.
The test system of data set [2] is advanced breast cancer. The conditions noted are these: in combination with exemestane; cited from earlier work.

The Tmax is the time from dosing to the highest level. As usually defined, the half-life is how long it takes for the measured level to halve. Low values mean fast loss, high ones slow loss. By AUC(0-t) is commonly meant exposure summed from dosing to a finite time, without extrapolation to infinity. Broadly, the Cmax is the maximum level reached in the sampled fluid or tissue. Turning to `C=C1C[C@@H]2[C@H](CC[C@]3(C)C(=O)CC[C@@H]23)[C@@]2(C)C=CC(=O)C=C12` [Exemestane], in data set [1], the Tmax was determined as 3.95 h and the half-life is 5.68 h. Further, in data set [1] (25 mg), the exposure AUC(0-t) was 54.6 ng·h/mL, the concentration peaked (Cmax) at 17 ng/mL, the Tmax came to 1.02 h and the half-life is 6.24 h.
Consider `Nc1cc(F)ccc1NC(=O)c1ccc(CNC(=O)/C=C/c2cccnc2)cc1` [chidamide], for which, in data set [2], the “Median PFS” value is listed as 7.4 months; the “Neutropenia, patients” value was 51%; the “Thrombocytopenia, patients” value was 28%.
